Reference: patent publication US10053452B2 (AMGEN INC., priority 2013, dated 2018)

Key:
[1] = Solid photostability (1×ICH dose for UV and visible light); format: physicochemical; conditions: 1×ICH dose for UV and visible light
Experimental: For photostability studies, enough sample was placed in a open 100 mL glass crystallization dish and exposed to 1×ICH dose for UV and visible light. Samples were weighed out for HPLC, XRPD, TGA and DSC analysis as abve after the exposure to light.

[2] = test system: solid ovarian cancerous tumor; assay: Human Ph I clinical trial, tumor response: ovarian tumor
Experimental: Specifically, FIG. 32A illustrates diametric measurements along the short axis of the tumor dosed with 30 mg once daily over a period of two (2) cycles, ie., 4 week (28 days).

[3] = Relationship / interconversion between bismesylate crystalline forms; format: physicochemical
From the text: AMG 900 bismesylate salt crystalline From A was identified as a dihydrate; AMG 900 bismesylate salt crystalline From B was identified as a dihydrate; AMG 900 bismesylate salt crystalline From C was identified as a monohydrate; and AMG 900 bismesylate salt crystalline From D was identified as a monohydrate. […].

[4] = Solid stability studies (storage at set temperature/humidity; HPLC, XRPD, TGA, DSC); format: physicochemical; conditions: for Assay (% w/w): acceptance 97.0-103.0; for physical and chemical stability of unmilled drug substance: up to 3 months, 30° C./65% RH and 40° C./75% RH
Experimental: Stability data was obtained for up to 3 months storage at the long term storage condition of 30° C./65% RH and at the accelerated condition of 40° C./75% RH for unmilled drug substance.
Another 10 mg was weighed into a 4 mL glass vial and placed under the same conditions. At each time point one flask was removed from the chamber or over, diluted with methanol to the 100 mL mark and analyzed by HPLC for purity and label claim % compared to the standard. Also at each time point one vial was removed from the chamber and the contents were analyzed by XRPD, TGA and/or DSC.

[5] = Dynamic vapor sorption (DVS) moisture uptake; format: physicochemical
Experimental: Moisture uptake of a given AMG 900 salt crystalline form was assessed by dynamic vapor sorption (DVS). Moisture sorption/desorption data was collected on a Surface Measurement System (SMS) DVS-Advantage vapor sorption analyzer (SMS, Alperton, Middlesex, UK). The sorption and desorption data was collected over a range of 0 to 95% relative humidity (RH) at 25° C. with 5-10% RH intervals under a nitrogen purge. Equilibrium criteria used for analysis were less than 0.002% weight change in 5 minutes, with a maximum equilibrium time of 120 minutes if the weight criterion was not met.

Dog pK study = format: in vivo; conditions: dog
From the text: To this end, a various crystalline forms of different pharmaceutically acceptable salts of AMG 900 were investigated and made.

[6] = Solid stability studies (storage at set temperature/humidity; HPLC, XRPD, TGA, DSC); format: physicochemical; conditions: for Total Impurities (%): acceptance < or = 2.0; for Assay (% w/w): acceptance 97.0-103.0; for Description: acceptance: White to brown powder
[7] = test system: stage IV solid endometrial cancerous tumor; assay: Human Ph I clinical trial, tumor response: endometrial tumor; conditions: endometrial tumor patient; 30 mg+GCSF once daily, 4 days on/10 days off; week 24; CT, RECIST 1.0
From the text: FIGS. 31A and 31B are measurements of the same endometrial solid tumor depicted in FIGS. 30A and 30B, but with its size shown as measured alone the short axis by CT and calculated using RECIST 1.1.

[8] = Solubility studies in aqueous media, excipients or solvents (18-24 hrs, HPLC; solid form by XRPD); format: physicochemical; conditions: for solubility at 24 h: thermodynamic from solid
Experimental: An excess of solid material was stirred at 25° C. or 55° C. for 18-24 hrs in aqueous media, excipients or solvents as noted. At the appropriate time point, an aliquot of the sample was centrifuged. The supernatant was filtered through a PTFE syringe filter and analyzed by HPLC versus a standard curve. The solid was then analyzed by XRPD for identification of the form.

solid tumor = assay: Human Ph I clinical trial: active dose and MTD/DLT; conditions: oral
[9] = platinum-sensitive ovarian cancer patient, 16 mg, then 8 mg (cycles 4-15), 12 mg (cycle 16) once daily, end of cycle 16
[10] = 30° C./65% RH, Initial Period Time 0
[11] = up to 12 weeks, 25° C./60% RH, 40° C./60% RH, 40° C./75% RH and 60° C./Amb

**Q.** For `Cc1csc(-c2nnc(Nc3ccc(Oc4ncccc4-c4ccnc(N)n4)cc3)c3ccccc23)c1` [AMG 900 bismesylate dihydrate form B, N-(4-((3-(2-amino-4-pyrimidinyl)-2-pyridinyl)oxy)phenyl)-4-(4-methyl-2-thienyl)-1-phthalazinamine], which “chemical and physical stability to light” value [1] is on record?
**A.** Its value is “chemically and physically stable”.

**Q.** What about the “decrease in CA-125” value [2, 9] of the same molecule?
**A.** Its value is 45%.

**Q.** And the “decrease in SLD (sum of long axis diameters) on CT” value [2, 9]?
**A.** The value was 16%.

**Q.** What about the “reduction of short axis diameter versus base line” value ([2]; stage IV-B ovarian tumor patient, 30 mg once daily, 4 days on/10 days off, two cycles, week 4, RECIST 1.1) of the same molecule?
**A.** Its value is “about 30%”.

**Q.** What about the “thermodynamic stability of the crystalline form” value [3] of the same molecule?
**A.** The value was “thermodynamically stable form”.

**Q.** And the “Assay (% w/w)” value ([4]; 30° C./65% RH, 3 months)?
**A.** Its value is 99.2 % w/w.

**Q.** And the Description ([4]; 30° C./65% RH, 3 months, acceptance: White to brown powder)?
**A.** The Description was “conforms”.

**Q.** And the “Assay (% w/w)” value [4, 10]?
**A.** The value was 98.1 % w/w.

**Q.** And the “Total Impurities (%)” value ([4]; 30° C./65% RH, Initial Period Time 0, acceptance < or = 2.0)?
**A.** Its value is 0.35%.

**Q.** And the “4-aminophenol content (ppm)” value ([4]; 30° C./65% RH, Initial Period Time 0, acceptance < or = 500)?
**A.** Its value is less than 20 ppm.

**Q.** And the “physical and chemical stability of unmilled drug substance” value ([4]; listed as AMG 900 bis-mesylate dihydrate drug substance)?
**A.** Its value is “remain within specifications”.

**Q.** What about the “physical and chemical stability of unmilled drug substance” value ([4]; listed as AMG 900 bismesylate (dimethanesulfonate) salt crystalline Form B) of the same molecule?
**A.** The value was “stable”.

**Q.** And the hygroscopicity [5]?
**A.** The hygroscopicity was “non-hygroscopic”.

**Q.** And the “stability to humidity changes (DVS isotherm)” value ([5]; above 10% RH)?
**A.** The value was “stable to humidity changes”.

**Q.** And the “exposure in a dog pK study” value (Dog pK study)?
**A.** Its value is “acceptable”.

**Q.** What about the “Water content (%)” value ([6]; 30° C./65% RH, 3 months) of the same molecule?
**A.** Its value is 5.1%.

**Q.** And the “Total Impurities (%)” value ([6]; 30° C./65% RH, 3 months)?
**A.** The value was 0.21%.

**Q.** What about the “4-aminophenol content (ppm)” value ([6]; 30° C./65% RH, 3 months, acceptance < or = 500) of the same molecule?
**A.** Its value is less than 20 ppm.

**Q.** And the “Water content (%)” value ([6]; 30° C./65% RH, 6 months)?
**A.** The value was 5.2%.

**Q.** What about the “Assay (% w/w)” value ([6]; 30° C./65% RH, 6 months) of the same molecule?
**A.** The value was 99.1 % w/w.

**Q.** And the “Total Impurities (%)” value ([6]; 30° C./65% RH, 6 months)?
**A.** Its value is 0.16%.

**Q.** And the “4-aminophenol content (ppm)” value ([6]; 30° C./65% RH, 6 months, acceptance < or = 500)?
**A.** The value was less than 20 ppm.

**Q.** What about the Description ([6]; 30° C./65% RH, 6 months) of the same molecule?
**A.** The Description was “conforms”.

**Q.** And the “Water content (%)” value ([6]; 30° C./65% RH, 9 months)?
**A.** Its value is 5.2%.

**Q.** What about the “Assay (% w/w)” value ([6]; 30° C./65% RH, 9 months) of the same molecule?
**A.** The value was 101.2 % w/w.

**Q.** What about the “Total Impurities (%)” value ([6]; 30° C./65% RH, 9 months) of the same molecule?
**A.** Its value is 0.25%.

**Q.** What about the “4-aminophenol content (ppm)” value ([6]; 30° C./65% RH, 9 months, acceptance < or = 500) of the same molecule?
**A.** The value was less than 20 ppm.

**Q.** And the Description ([6]; 30° C./65% RH, 9 months)?
**A.** Its Description is “conforms”.

**Q.** And the “Water content (%)” value ([6]; 30° C./65% RH, 12 months)?
**A.** Its value is 5.2%.

**Q.** And the “Assay (% w/w)” value ([6]; 30° C./65% RH, 12 months)?
**A.** The value was 100.1 % w/w.

**Q.** What about the “Total Impurities (%)” value ([6]; 30° C./65% RH, 12 months) of the same molecule?
**A.** The value was 0.26%.

**Q.** And the “4-aminophenol content (ppm)” value ([6]; 30° C./65% RH, 12 months, acceptance < or = 500)?
**A.** The value was less than 20 ppm.

**Q.** What about the “Intermediate* content (ppm)” value ([6]; 30° C./65% RH, 12 months, acceptance < or = 500, intermediate is 4-(2-(4-aminophenoxy)pyridin-3-yl)pyrimidin-2-amine) of the same molecule?
**A.** Its value is 171 ppm.

**Q.** What about the Description ([6]; 30° C./65% RH, 12 months) of the same molecule?
**A.** Its Description is “conforms”.

**Q.** And the “Water content (%)” value [6, 10]?
**A.** Its value is 5.0%.

**Q.** And the Description [6, 10]?
**A.** The Description was “conforms”.

**Q.** What about the “chemical stability (HPLC)” value [6, 11] of the same molecule?
**A.** Its value is “no degradation detected”.

**Q.** What about the “physical stability (XRPD, TGA and DSC)” value [6, 11] of the same molecule?
**A.** Its value is “physically stable”.

**Q.** And the “decrease of long axis diameter versus base line” value [7]?
**A.** Its value is “approximately 50%”.

**Q.** What about the “form stability after slurry in various aqueous media and solvents” value ([8]; 24 hrs, all media except aqueous pH 7 and pH 12) of the same molecule?
**A.** The value was “remain unchanged (stable)”.

**Q.** What about the solubility at 24 h ([8]; DMF, organic solvent or mixture) of the same molecule?
**A.** Its solubility at 24 h is greater than 12000 µg/mL.

**Q.** And the solubility at 24 h ([8]; THF, organic solvent or mixture)?
**A.** Its solubility at 24 h is 12 µg/mL.

**Q.** And the solubility at 24 h ([8]; acetone, organic solvent or mixture)?
**A.** The solubility at 24 h was 20 µg/mL.

**Q.** What about the solubility at 24 h ([8]; aqueous MSA, aqueous buffer, pH 0.5 MSA) of the same molecule?
**A.** The solubility at 24 h was 676 µg/mL.

**Q.** And the solubility at 24 h ([8]; aqueous MSA, aqueous buffer, pH 1.0 MSA)?
**A.** The solubility at 24 h was greater than 7400 µg/mL.

**Q.** And the solubility at 24 h ([8]; aqueous MSA, aqueous buffer, pH 1.5 MSA)?
**A.** Its solubility at 24 h is 3400 µg/mL.

**Q.** What about the solubility at 24 h ([8]; aqueous MSA, aqueous buffer, pH 2.0 MSA) of the same molecule?
**A.** Its solubility at 24 h is 1620 µg/mL.

**Q.** And the form after slurry ([8]; aqueous pH 7, 24 hrs)?
**A.** Its form after slurry is “converted to the free base form C hydrate”.

**Q.** What about the form after slurry ([8]; aqueous pH 12, 24 hrs) of the same molecule?
**A.** Its form after slurry is “converted to the free base form C hydrate”.

**Q.** And the solubility at 24 h ([8]; ethanol, organic solvent or mixture)?
**A.** Its solubility at 24 h is greater than 12000 µg/mL.

**Q.** And the solubility at 24 h ([8]; ethyl acetate, organic solvent or mixture)?
**A.** The solubility at 24 h was less than 1 µg/mL.

**Q.** And the solubility at 24 h ([8]; isopropyl alcohol, organic solvent or mixture)?
**A.** The solubility at 24 h was greater than 1 µg/mL.

**Q.** And the solubility at 24 h ([8]; methanol, organic solvent or mixture)?
**A.** The solubility at 24 h was greater than 12000 µg/mL.

**Q.** What about the solubility at 24 h ([8]; methanol/water (9:1), organic solvent or mixture) of the same molecule?
**A.** Its solubility at 24 h is greater than 12000 µg/mL.

**Q.** And the solubility at 24 h ([8]; methyl ethyl ketone, organic solvent or mixture, Methyl ethyl keone)?
**A.** Its solubility at 24 h is less than 1 µg/mL.

**Q.** What about the solubility at 24 h ([8]; organic solvent or mixture, Acetonitrile (ACN)) of the same molecule?
**A.** Its solubility at 24 h is 383 µg/mL.

**Q.** And the solubility at 24 h ([8]; organic solvent or mixture, Dichloroethane (DCE))?
**A.** The solubility at 24 h was 8 µg/mL.

**Q.** And the solubility at 24 h ([8]; phosphate buffer, aqueous buffer, pH 7.0 Phosphate)?
**A.** Its solubility at 24 h is less than 1 µg/mL.

**Q.** What about the solubility at 24 h ([8]; phosphate buffer, aqueous buffer, pH 12.0 Phosphate) of the same molecule?
**A.** The solubility at 24 h was less than 1 µg/mL.

**Q.** And the “dose at which MTD's and DLT's were observed” value (solid tumor)?
**A.** Its value is “greater than 8 mg”.

**Q.** And the “once daily dose at which anti cancer activity was observed” value (solid tumor; on-off schedule, ovarian and endometrial tumors)?
**A.** The value was no less than 8 mg.
